Measured values taken from US8273760B2, “Indolo[3,2-c]quinoline compounds” (Kaohsiung Medical University, priority 2008, dated 2012).
Where a name gives a salt, the structure may show the parent alone. Read-outs that look alike come from different tables or passages of the source.

Tests used:
telomerase = telomerase (Homo sapiens, UniProt O14746); assay: Telomeric Repeat Amplification Protocol (TRAP) assay, cell-free; details: 0.5 μg total cell extract from H1299 human lung cancer cells, FIG. 1
HL-60 (TB) = assay: In vitro anticancer assay (NCI 60 cell line panel), HL-60 (TB); format: cell-based; details: Homo sapiens, leukemia
Description: (§1) Selected compounds were evaluated in vitro against the NCI's full panel of 60 cancer cell lines derived from nine cancer cell types, including: leukemia (CCRF-CEM, HL-60 (TB), K-562, MOLT-4, RPMI-8226, and SR); non-small cell lung cancer (A549/ATCC, EKVX, HOP-62, HOP-92, NCI-H226, NCI-H23, NCI-H322M, and NCI-H522); colon cancer (COLO 205, HCC-2998, HCT-116, HCT-15, HT29, KM12, and SW-620); CNS cancer (SF-268, SF-295, SF-539, SNB-19, SNB-75, and U251); melanoma (LOX IMVI, MALME-3M, M14, SK-MEL-2, SK-MEL-28, SK-MEL-5, UACC-62, and UACC-257); ovarian cancer (IGROV1, OVCAR-3, OVCAR-4, OVCAR-5, OVCAR-8, and SK-OV-3); renal cancer (786-0, A498, ACHN, CAKI-1, RXF 393, SN12C, TK-10, and UO-31); prostate cancer (PC-3 and DU-145); and breast cancer (MCF7, MCF7/ADR-RES, MDA-MB-231/ATCC, HS 578T, MDA-MB-435, MDA-N, and T-47D). For each compound, dose-response curves for each cell line were measured with five different drug concentrations, and the concentration causing 50% cell growth inhibition (GI50) compared with the control was calculated. The mean GI50 values of each tested compound for all the 60 tumor cell lines were also calculated.

K-562 = assay: In vitro anticancer assay (NCI panel), K-562; format: cell-based; details: Homo sapiens, K562; K-562, leukemia
Description: as §1

SR = assay: In vitro anticancer assay (NCI panel), SR; format: cell-based; details: Homo sapiens, leukemia
Description: as §1

A549/ATCC = assay: In vitro anticancer assay (NCI panel), A549/ATCC; format: cell-based; details: Homo sapiens, non-small cell lung cancer
Description: as §1

HOP-62 = assay: In vitro anticancer assay (NCI panel), HOP-62; format: cell-based; details: Homo sapiens; HOP-62, non-small cell lung cancer
Description: as §1

NCI-H460 = assay: In vitro anticancer assay (NCI panel), NCI-H460; format: cell-based; details: Homo sapiens; NCI-H460, non-small cell lung cancer
Description: as §1

COLO 205 = assay: In vitro anticancer assay (NCI panel), COLO 205; format: cell-based; details: Homo sapiens; COLO 205, colon cancer
Description: as §1

HCT-116 = assay: In vitro anticancer assay (NCI panel), HCT-116; format: cell-based; details: Homo sapiens; HCT-116, colon cancer
Description: as §1

HT29 = assay: In vitro anticancer assay (NCI panel), HT29; format: cell-based; details: Homo sapiens, HT-29; HT29, colon cancer
Description: as §1

SF-268 = assay: In vitro anticancer assay (NCI panel), SF-268; format: cell-based; details: Homo sapiens; SF-268, CNS cancer
Description: as §1

SF-295 = assay: In vitro anticancer assay (NCI panel), SF-295; format: cell-based; details: Homo sapiens; SF-295, CNS cancer
Description: as §1

SNB-19 = assay: In vitro anticancer assay (NCI panel), SNB-19; format: cell-based; details: Homo sapiens; SNB-19, CNS cancer
Description: as §1

LOX IMVI = assay: In vitro anticancer assay (NCI panel), LOX IMVI; format: cell-based; details: Homo sapiens, melanoma
Description: as §1

SK-MEL-2 = assay: In vitro anticancer assay (NCI panel), SK-MEL-2; format: cell-based; details: Homo sapiens; SK-MEL-2, melanoma
Description: as §1

UACC-62 = assay: In vitro anticancer assay (NCI panel), UACC-62; format: cell-based; details: Homo sapiens; UACC-62, melanoma
Description: as §1

OVCAR-3 = assay: In vitro anticancer assay (NCI panel), OVCAR-3; format: cell-based; details: Homo sapiens; OVCAR-3, ovarian cancer
Description: as §1

OVCAR-5 = assay: In vitro anticancer assay (NCI panel), OVCAR-5; format: cell-based; details: Homo sapiens; OVCAR-5, ovarian cancer
Description: as §1

OVCAR-8 = assay: In vitro anticancer assay (NCI panel), OVCAR-8; format: cell-based; details: Homo sapiens; OVCAR-8, ovarian cancer
Description: as §1

786-0 = assay: In vitro anticancer assay (NCI panel), 786-0; format: cell-based; details: Homo sapiens; 786-0, renal cancer
Description: as §1

ACHN = assay: In vitro anticancer assay (NCI panel), ACHN; format: cell-based; details: Homo sapiens, renal cancer
Description: as §1

SN12C = assay: In vitro anticancer assay (NCI panel), SN12C; format: cell-based; details: Homo sapiens, renal cancer
Description: as §1

PC-3 = assay: In vitro anticancer assay (NCI panel), PC-3; format: cell-based; details: Homo sapiens; PC-3, prostate cancer
Description: as §1

DU-145 = assay: In vitro anticancer assay (NCI panel), DU-145; format: cell-based; details: Homo sapiens; DU-145, prostate cancer
Description: as §1

MCF7 = assay: In vitro anticancer assay (NCI panel), MCF7; format: cell-based; details: Homo sapiens; MCF7, breast cancer
Description: as §1

MDA-MB-231/ATCC = assay: In vitro anticancer assay (NCI panel), MDA-MB-231/ATCC; format: cell-based; details: Homo sapiens, breast cancer
Description: as §1

MDA-MB-435 = assay: In vitro anticancer assay (NCI panel), MDA-MB-435; format: cell-based; details: Homo sapiens; MDA-MB-435, breast cancer
Description: as §1

[1] = test system: NCI's full panel of 60 cancer cell lines; assay: In vitro anticancer assay, all cell lines of the NCI panel; format: cell-based, human
Description: as §1

[2] = Homo sapiens, mean values of over all cell lines tested, read-out: MG MID (mean GI50)

telomerase, sequence (O14746 whole entry): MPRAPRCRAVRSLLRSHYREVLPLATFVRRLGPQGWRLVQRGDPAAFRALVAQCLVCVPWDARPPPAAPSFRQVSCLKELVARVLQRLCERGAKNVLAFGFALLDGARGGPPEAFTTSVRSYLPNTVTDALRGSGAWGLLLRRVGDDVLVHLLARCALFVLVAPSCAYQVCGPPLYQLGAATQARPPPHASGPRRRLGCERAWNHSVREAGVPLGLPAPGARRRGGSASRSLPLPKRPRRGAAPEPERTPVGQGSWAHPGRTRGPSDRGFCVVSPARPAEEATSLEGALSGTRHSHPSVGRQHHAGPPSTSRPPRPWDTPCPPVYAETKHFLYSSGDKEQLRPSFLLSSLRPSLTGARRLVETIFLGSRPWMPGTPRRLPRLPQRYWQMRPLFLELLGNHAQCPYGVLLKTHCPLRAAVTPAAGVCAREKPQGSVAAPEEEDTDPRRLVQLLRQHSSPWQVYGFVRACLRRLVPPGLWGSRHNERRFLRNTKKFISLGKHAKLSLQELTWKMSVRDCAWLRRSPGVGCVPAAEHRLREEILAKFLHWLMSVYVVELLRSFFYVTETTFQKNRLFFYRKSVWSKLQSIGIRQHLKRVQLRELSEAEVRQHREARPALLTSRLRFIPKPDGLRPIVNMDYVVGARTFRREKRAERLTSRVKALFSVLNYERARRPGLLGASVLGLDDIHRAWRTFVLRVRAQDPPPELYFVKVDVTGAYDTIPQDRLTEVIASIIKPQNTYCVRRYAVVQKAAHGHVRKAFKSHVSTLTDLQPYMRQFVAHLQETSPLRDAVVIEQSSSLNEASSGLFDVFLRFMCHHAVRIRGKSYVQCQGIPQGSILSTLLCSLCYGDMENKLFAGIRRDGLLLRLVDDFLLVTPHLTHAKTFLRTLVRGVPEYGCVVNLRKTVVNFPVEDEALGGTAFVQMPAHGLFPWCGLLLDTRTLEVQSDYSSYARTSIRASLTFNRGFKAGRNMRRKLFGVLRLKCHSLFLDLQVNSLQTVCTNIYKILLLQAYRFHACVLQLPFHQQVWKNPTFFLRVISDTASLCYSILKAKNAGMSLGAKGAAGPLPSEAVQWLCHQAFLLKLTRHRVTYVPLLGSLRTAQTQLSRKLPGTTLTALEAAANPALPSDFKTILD

| Molecule | concentration that completely inhibited telomerase activity (telomerase) | GI50 (HL-60 (TB)) | GI50 (K-562) | GI50 (SR) | GI50 (A549/ATCC) | GI50 (HOP-62) | GI50 (NCI-H460) | GI50 (COLO 205) | GI50 (HCT-116) | GI50 (HT29) | GI50 (SF-268) | GI50 (SF-295) | GI50 (SNB-19) | GI50 (LOX IMVI) | GI50 (SK-MEL-2) | GI50 (UACC-62) | GI50 (OVCAR-3) | GI50 (OVCAR-5) | GI50 (OVCAR-8) | GI50 (786-0) | further results |
| --- | --- | --- | --- | --- | --- | --- | --- | --- | --- | --- | --- | --- | --- | --- | --- | --- | --- | --- | --- | --- | --- |
| COc1ccc(CCNc2nc3ccccc3c3[nH]c4ccccc4c23)cc1OC [Compound 7c, 6-[2-(3,4-dimethoxyphenyl)ethylamino]-11H-indolo[3,2-c]quinoline hydrochloride] | approximately 2 nM |  |  |  |  |  |  |  |  |  |  |  |  |  |  |  |  |  |  |  |  |
| CN(CCCN)CCCNc1nc2ccccc2c2[nH]c3ccccc3c12 [Compound 10, N^1-[3-(11H-Indolo[3,2-c]quinolin-6-ylamino)propyl]-N^1-methylpropane-1,3-diamine hydrochloride] |  | 90 nM | 40 nM | 370 nM | 80 nM | 150 nM | 310 nM | 180 nM | 80 nM | 150 nM | 250 nM | 130 nM | 150 nM | 210 nM | 200 nM | 190 nM | 220 nM | 150 nM | 40 nM | 90 nM | GI50 (ACHN): 380 nM; GI50 (SN12C): 70 nM; GI50 (PC-3): 320 nM; GI50 (DU-145): 240 nM; GI50 (MCF7): 50 nM; GI50 (MDA-MB-231/ATCC): 170 nM; GI50 (MDA-MB-435): 190 nM; GI50 [1, 2]: 180 nM |
| c1ccc2c(c1)nc(NCCN1CCNCC1)c1c3ccccc3[nH]c21 (as salt: hydrochloride) [Compound 5, N-(11H-Indolo[3,2-c]quinolin-6-yl)-2-(piperazin-1-yl)ethanamine] |  |  |  |  |  |  |  |  |  |  |  |  |  |  |  |  |  |  |  |  | melting point: 210 to 211 °C |
| Oc1ccc(CCNc2nc3ccccc3c3[nH]c4ccccc4c23)cc1 [Compound 7a, 6-[2-(4-Hydroxyphenyl)ethylamino]-11H-indolo[3,2-c]quinoline hydrochloride] | approximately 2 nM | 2400 nM | 1910 nM | 1480 nM | 1330 nM | 1630 nM | 1310 nM | 1180 nM | 1220 nM | 1420 nM | 1710 nM | 1380 nM | 1830 nM | 1590 nM | 1730 nM | 1660 nM | 1600 nM | 2890 nM | 1020 nM | 1290 nM | GI50 (ACHN): 1270 nM; GI50 (SN12C): 1270 nM; GI50 (PC-3): 1630 nM; GI50 (DU-145): 1450 nM; GI50 (MCF7): 1370 nM; GI50 (MDA-MB-231/ATCC): 1360 nM; GI50 (MDA-MB-435): 1600 nM; GI50 [1, 2]: 1700 nM |
| Cl.OCCNc1nc2ccccc2c2[nH]c3ccccc3c12 [Compound 7d, 2-(11H-indolo[3,2-c]quinolin-6-ylamino)ethanol hydrochloride] |  | 560 nM | 460 nM | 210 nM | 410 nM | 580 nM | 290 nM | 310 nM | 230 nM | 280 nM | 560 nM | 450 nM | 410 nM | 360 nM | 570 nM | 1150 nM | 470 nM | 1030 nM | 360 nM | 450 nM | GI50 (ACHN): 160 nM; GI50 (SN12C): 220 nM; GI50 (DU-145): 690 nM; GI50 (MCF7): 370 nM; GI50 (MDA-MB-231/ATCC): 430 nM; GI50 (MDA-MB-435): 410 nM; GI50 [1, 2]: 460 nM; melting point: 344 to 345 °C |
| CN(CCCNc1nc2ccccc2c2[nH]c3ccccc3c12)CCCNc1nc2ccccc2c2[nH]c3ccccc3c12.Cl [Compound 8b, N,N-bis-[3-(11H-indolo[3,2-c]quinolin-6-yl)aminopropyl]-N-methylamine hydrochloride] | approximately 0.02 nM | < 10 nM | < 10 nM | < 10 nM | < 10 nM | < 10 nM | < 10 nM | 20 nM | < 10 nM | < 10 nM | < 10 nM | < 10 nM | < 10 nM | < 10 nM | 70 nM | 60 nM | 50 nM | 80 nM | < 10 nM | < 10 nM | GI50 (ACHN): 20 nM; GI50 (SN12C): < 10 nM; GI50 (PC-3): 70 nM; GI50 (DU-145): 50 nM; GI50 (MCF7): < 10 nM; GI50 (MDA-MB-231/ATCC): 90 nM; GI50 (MDA-MB-435): 110 nM; GI50 [1, 2]: < 20 nM; GI50 ([1]; Homo sapiens, span over the cell lines of Table 2, read-out: GI50 value for each cell line (span over the cell lines)): 10 to 110 nM |
| NCCCN1CCN(CCCNc2nc3ccccc3c3[nH]c4ccccc4c23)CC1 [Compound 6, {3-[4-(3-Aminopropyl)piperazin-1-yl]propyl}(11H-indolo[3,2-c]quinolin-6-yl)amine hydrochloride] | approximately 0.02 nM | 420 nM | 70 nM | 350 nM | 200 nM | 240 nM | 300 nM | 210 nM | 180 nM | 140 nM | 310 nM | 140 nM | 270 nM | 290 nM | 180 nM | 210 nM | 240 nM | 250 nM | 40 nM | 260 nM | GI50 (ACHN): 200 nM; GI50 (SN12C): < 10 nM; GI50 (PC-3): 350 nM; GI50 (DU-145): 120 nM; GI50 (MCF7): 120 nM; GI50 (MDA-MB-231/ATCC): 230 nM; GI50 (MDA-MB-435): 370 nM; GI50 [1, 2]: ~300 nM |
| 6-[2-(3,4-dihydroxyphenyl)ethylamino]-11 indolo[3,2-c]quinoline hydrochloride [Compound 7b] | approximately 2 nM |  |  |  |  |  |  |  |  |  |  |  |  |  |  |  |  |  |  |  |  |
| c1ccc2c(c1)nc(NCCN1CCNCC1)c1c3ccccc3[nH]c21 [Compound 5, N-(11H-Indolo[3,2-c]quinolin-6-yl)-2-(piperazin-1-yl)ethanamine] | approximately 0.02 nM | 290 nM | 70 nM | 180 nM | 110 nM | 400 nM | 190 nM | 220 nM | 70 nM | 120 nM | 500 nM | 310 nM | 300 nM | 200 nM | 1060 nM | 1260 nM | 270 nM | 540 nM | 40 nM | 220 nM | GI50 (ACHN): 380 nM; GI50 (SN12C): 80 nM; GI50 (PC-3): 310 nM; GI50 (DU-145): 160 nM; GI50 (MCF7): 80 nM; GI50 (MDA-MB-231/ATCC): 340 nM; GI50 (MDA-MB-435): 630 nM; GI50 [1, 2]: ~300 nM; GI50 ([1]; mean values of over all cell lines tested, read-out: MG MID (mean GI50)): 350 nM |
